Patent publication US20260240827A1, “PALATABLE LIQUID SOLUTION CONTAINING HIGH CONCENTRATION OF MIGLUSTAT” (THERANEXUS, priority 2022, published 2026)

Assay: Drug excipient compatibility: physical description after storage
Assay type: physicochemical
Details: up to 4 weeks 40° C./75% RH and 25° C./60% RH, 60° C. 1 week
Protocol: This study was conducted to assess the compatibility of miglustat with excipient candidates that can be used in the liquid Miglustat product. Each different excipient was manually stirred with miglustat and stored into amber glass vials.
Vials were stored in climatic chambers with different environmental conditions: 25° C./60% RH, 40° C./75% RH and 60° C. for up to 4 weeks, in closed containers. (RH=relative humidity)
After the defined storage time, samples were exited from the climatic chambers. Operators observed the solution and described the appearance of the solution by visual inspection.

Row | SMILES | Compatibility of excipient with Miglustat in binary mixture (DEC study conclusion)
1 | CC1=CC(=O)NS(=O)(=O)O1 [Acesulfame Potassium] | not compatible
2 | O=C([O-])c1ccccc1.[Na+] [Sodium Benzoate, sodium salt of benzoic acid] | compatible
3 | Cl [Hydrochloric acid] | not compatible
4 | O=C(O)C(O)C(O)C(=O)O (stereo not drawn) [Tartaric acid, 2,3-Dihydroxybutanedioic acid] | compatible
5 | O=C1O[C@H]([C@@H](O)CO)C(O)=C1O [ascorbic acid] | not compatible

Assay: not given
Details: ambient temperature; cited from earlier work

Row | SMILES | Solubility in water
6 | CCCCN1C[C@H](O)[C@@H](O)[C@H](O)[C@H]1CO [Miglustat, 1,5-(butylimino)-1,5-dideoxy-D-glucitol] | > 1000 mg/mL
